Data taken from patent US20210052566A1, “METHODS FOR TREATING HEPATITIS B VIRUS (HBV) INFECTION” (INSERM (INSTITUT NATIONAL DE LA SANTÉ ET DE LA RECHERCHE …, priority 2018, published 2021).

Assays:
HBV genotype D = experiment: Anti-HBV properties in persistently infected dHepaRG cells, genotype D (post-infection treatment); assay type: cell-based, Hepatitis B virus
Procedure: (§1) FIG. 1. Experimental outlines. Treatment schemes: (a) Treatments in pre-infection: dHepaRG cells were treated for 24 h (at day −1) with 100 nM of PreS1 peptide (PreS1-pep) or 10 μM of 1C8, or untreated (NT). At day 0, cells were inoculated with HBV (MOI=250) or with HDV (MOI=25) in the presence of drugs for 24 h. For the tenofovir control (TDF at 10 μM), cells were treated at day 1 and 4 post-infection. Supernatant and cells were harvested at day 7 post-infection. (b) Treatments in post-infection: dHepaRG cells were inoculated with HBV (MOI=250) or with HDV (MOI=25). At days 4, 7 and 9 post infection, cells were treated with TDF 10 μM, lamivudine (3TC) at 10 μM, 1C8 10 μM or untreated (NT). Supernatant and cells were harvested at day 11 postinfection.
FIG. 5. Anti-HBV properties of 1C8 in persistently infected dHepaRG cells: genotype D. Differentiated HepaRG were infected with HBV genotype D at a MOI of 100 vge/cell or HDV genotype 1 at a MOI of 10 vge/cell for 7 days before being treated trice every 2-3 days with indicated molecules at a concentration of 10 microM. A) Total DNA and RNA were extracted from cells and subjected to qPCR and RTqPCR to detect HBV cccDNA, total HBV RNA or pregenomic HBV RNA. B) HBs and HBe secreted antigens in supernatant were quantified by ELISA, whereas HBV DNA contained in virions was quantified by qPCR after viral nucleic acid extraction from supernatant. C) Intracellular HDV RNA was quantified by RTqPCR after total RNA extraction from cells. D) Viability was monitored in 1C8-treated (or control treated; puromycin is a positive toxic molecule) cells by CellTiter-Glo® luminescent cell viability assay. Results are the mean+SEM of n=3 performed with 3 different differentiations of HepaRG. Statistics were done by two-tailed Mann-Whitney test, with following significativity: *P<0.05, **P<0.01, ***P<0.001, ****P<0.0001. nd=not determined
Human liver progenitor HepaRG cells were cultured in Williams medium (ThermoFisher) supplemented with 10% of FBS (Perbio), Penicillin/Streptomycin (500 U/mL), glutamine (2 mM), hydrocortisone Upjohn (2.5 mg/L; Serb laboratory), insulin (5 mg/L; Sigma Aldrich). For the differentiation process 2% of DMSO was added to the above-described supplemented Williams medium. […] The multiplicity of infection (MOI; expressed as virus genome equivalent/cell) is indicated in the figure legends, but was of 100 vge/cell if not precised.
(§2) From cell culture supernatants, secreted HBe and HBs antigens were quantified by ELISA, using a chemiluminescence immunoassay kit (Autobio, China) following manufacturer's instructions. […]
A HBV standard was used for quantification of extracellular viral DNA and RNA. […]

HBV genotype C = experiment: Anti-HBV properties in persistently infected dHepaRG cells, genotype C; assay type: cell-based, Hepatitis B virus; conditions: 10 microM three times
Procedure: as §1, with “Supernatant and cells were harvested at day 11 postinfection.” left out
FIG. 6. […] B) HBs and HBe secreted antigens in supernatant were quantified by ELISA, whereas HBV DNA contained in virions was quantified by qPCR after viral nucleic acid extraction from supernatant. […] Statistics were done by two-tailed Mann-Whitney test, with following significativity: *P<0.05, **P<0.01, ***P<0.001, ****P<0.0001. nd=not determined. […]
as §2
A HBV standard was used for quantification of extracellular viral DNA and RNA. […] CccDNA was normalized to β-Globin quantification. […]

HDV genotype 1 = experiment: Establishment of HDV infection in dHepaRG (treatment 24 h before and during inoculation); assay type: cell-based, hepatitis delta virus; conditions: 1C8 10 microM, Entry Inh. 100 nM
Procedure: as §1
FIG. 7. Effect of 1C8 on de novo establishment of ccDNA in dHepaRG (genotype D). […] B) HBs and HBe secreted antigens in supernatant were quantiUied by ELISA, whereas HBV DNA contained in virions was quantified by qPCR after viral nucleic acid extraction from supernatant. […] Statistics were done by two-tailed Mann-Whitney test, with following signiUicativity: *P<0.05, **P<0.01, ***P<0.001, ****P<0.0001. nd=not determined.

SMILES: Cn1ccc(=O)c(C(=O)Nc2nsc3ccc([N+](=O)[O-])cc23)c1 [1C8, 4-pyridinonebenzisothiazole carboxamide]
- reduction of secretion of viral antigens (HBs and HBeAg) in cell culture supernatant (HBV genotype D; 10 microM three times, ELISA): 60-70%
- reduction of HBV virions (secreted HBV DNA) in cell culture supernatant (HBV genotype D; 10 microM three times, qPCR): 60-70%
- reduction of the accumulation of intracellular HBV RNA (HBV genotype D; MOI 100 vge/cell, treated three times every 2-3 days with 10 microM): 60-70%
- antiviral properties against genotype C virus (HBV genotype C): retained antiviral properties against this strain, although with a slightly reduced efficacy
- block of the establishment of HDV infections (HDV genotype 1): unable to block
